From patent US20240368209A1, “GEMCITABINE ANTICANCER DERIVATIVE AND ANTICANCER PHARMACEUTICAL USE” (ASCENTAWITS PHARMACEUTICALS, LTD., priority 2021, published 2024) come the findings set out here.

Where two headings read alike, the source gives them in different places.

This test relates to H460 non-small cell lung cancer human tumor cell line. Description: In vitro human tumor cell line cytotoxicity (proliferation) assay on H460, CTG, with or without AST-3021. It is filed as cell-based. The settings on record: for IC50: Homo sapiens. The protocol: In vitro human tumor cell line cytotoxicity assay was used.
In vitro proliferation data on the H460 non-small cell lung cancer human tumor cell line (cell line which highly expresses AKR1C3) is reported below in the compound table.
IC50 values were obtained with the following steps:
Specifically, exponentially growing cells were seeded at a density of 2×10^3 cells/100 μL/well in a 96-well plate and incubated at 37° C. in 5% CO2, 95% air and 100% relative humidity for 24 hours. The test compound was administered alone: 24 hours after cell plating, the compound acted alone, 99 μL of growth medium per well was added, and 1 μL of the compound prepared at 200× was added, and the plate was shaken gently to ensure even mixing, then placed into an incubator of 37° C., 5% CO2. After further cultivation for 72 hours, the number of live cells was detected using CTG. The CTG detection method was as follows: the cell plate to be tested was placed at room temperature to equilibrate for 30 minutes, and 100 μL of medium per well was discarded. 25 μL of CTG reagent (CellTiter-Glo® kit) per well was added, and the plate was placed in a high-speed shaker to oscillate for 2 minutes, and placed at room temperature in the dark for 30 minutes. The chemiluminescence signal value was read using a multimode microplate reader, with a read time of 1000 ms.
Similarly, in order to further verify that the compounds were activated by human AKR1C3 (aldosterone reductase family 1 member C3), the effect of some of the compounds on the proliferation of H460 cancer cells was tested with pretreatment with a specific AKR1C3 enzyme inhibitor AST-3021 (3 μM). The detailed experimental procedure was as follows: 24 hours after cell plating, 98 μL of growth medium per well was added, and 1 μL of 200×compound AST-3021 was added to each well, and the plate was shaken gently to ensure even mixing, and then placed into an incubator; after 2 hours, 1 μL of the test compound prepared at 200× was added, and the plate was shaken gently to ensure even mixing and then laced into an incubator of 37° C., 5% CO2. The inhibitor used was compound 36, i.e.
in Flanagan et al., Bioorganic and Medicinal Chemistry (2014), page 962-977, and is referred to as AST-3021 in this invention. The values measured in this case are values corresponding to +AST-3021 IC50 (nM) in Table 1.
The value corresponding to +AST-3021 IC50 (nM) divided by the value corresponding to IC50 (nM) is the specific activation ratio. The relative magnitude of the specific activation ratio can be used to evaluate whether this compound is a cytotoxic compound activated by human AKR1C3 (aldosterone reductase family 1 member C3): when the specific activation ratio is less than 1, it is considered that the compound is not activated by human AKR1C3 (aldosterone reductase family 1 member C3); when the specific activation ratio is greater than 1, it is considered that the compound is activated by human AKR1C3 (aldosterone reductase family 1 member C3), and the higher the value, the higher the activation degree and the selectivity of AKR1C3.

[1] abbreviates: NCI-H460, compound alone, 72 hours, read-out: IC50.
The mark [2] stands for this setting: NCI-H460, pretreatment with AKR1C3 inhibitor AST-3021 (3 μM), read-out: +AST-3021 IC50.

`CCN(CC)P(=O)(OCc1ccc([N+](=O)[O-])c(Oc2ccc(-c3ccc(F)cc3)c(F)c2)c1)OCC1OC(n2ccc(N)nc2=O)C(F)(F)C1O` (stereo not drawn) [Compound D2, reference compound]: the “specific activation ratio (+AST-3021 IC50/IC50)” value (shortened to “specific activation ratio”) came out at 45.1. For the same compound, the IC50 (in general, the concentration that inhibits the measured activity by half) under setting [1] is 96.9 nM. For the same compound, the IC50 under setting [2] worked out at 4370 nM.
Taken in the same sequence, the figures for `Nc1ccn(C2OC(COP(=O)(OCc3ccc([N+](=O)[O-])c(Oc4ccc(-c5ccc(F)cc5)c(F)c4)c3)Oc3ccccc3)C(O)C2(F)F)c(=O)n1` (stereo not drawn) [Compound D6, reference compound] were 0.54, 20.6 nM and 11.2 nM.
As to `Nc1ccn(C2OC(COP(=O)(OCc3ccc([N+](=O)[O-])c(Oc4ccc(C(F)(F)F)cc4)c3)Oc3ccccc3)C(O)C2(F)F)c(=O)n1` (stereo not drawn) [Compound D7, reference compound], the “specific activation ratio” value was 0.77. In addition, the IC50 under setting [1] worked out at 50.3 nM. The IC50 under setting [2] was 38.9 nM.
Take `CC(OP(=O)(OCC1OC(n2ccc(N)nc2=O)C(F)(F)C1O)N(C)C)c1ccc([N+](=O)[O-])c(Oc2ccc(-c3ccc(F)cc3)c(F)c2)c1` (stereo not drawn) [Compound D9, reference compound]: the “specific activation ratio” value was 56.5. The IC50 under setting [1] is 67.8 nM. Further, the IC50 under setting [2] stood at 3830 nM.
Taken in the same sequence, the figures for `CNP(=O)(OCc1ccc([N+](=O)[O-])c(Oc2ccc(-c3ccc(F)cc3)c(F)c2)c1)OCC1OC(n2ccc(N)nc2=O)C(F)(F)C1O` (stereo not drawn) [Compound H1] were 24.2, 29.4 nM and 712 nM.
Consider `CCNP(=O)(OCc1ccc([N+](=O)[O-])c(Oc2ccc(-c3ccc(F)cc3)c(F)c2)c1)OCC1OC(n2ccc(N)nc2=O)C(F)(F)C1O` (stereo not drawn) [Compound H2], for which the “specific activation ratio” value is on record as 47.8. Besides, the IC50 under setting [1] was 19.9 nM. The IC50 under setting [2] is 951 nM.
As for `Nc1ccn(C2OC(COP(=O)(NCCBr)OCc3ccc([N+](=O)[O-])c(Oc4ccc(-c5ccc(F)cc5)c(F)c4)c3)C(O)C2(F)F)c(=O)n1` (stereo not drawn) [Compound H4], the “specific activation ratio” value is recorded as 6.2. In addition, the IC50 under setting [1] was 5.15 nM. Moreover, the IC50 under setting [2] was determined as 31.7 nM.
As to `CNP(=O)(OCc1ccc([N+](=O)[O-])c(Oc2ccc(C(F)(F)F)cc2)c1)OCC1OC(n2ccc(N)nc2=O)C(F)(F)C1O` (stereo not drawn) [Compound H5], the “specific activation ratio” value was found to be 4.2. Moreover, the IC50 under setting [1] amounted to 117 nM. Moreover, under setting [2], the IC50 amounted to 499 nM.
Consider `CCNP(=O)(OCc1ccc([N+](=O)[O-])c(Oc2ccc(C(F)(F)F)cc2)c1)OCC1OC(C2N=CC(N)=NC2=O)C(F)(F)C1O` (stereo not drawn) [Compound H6], for which the “specific activation ratio” value came to 12.9. For the same compound, the IC50 under setting [1] came out at 178 nM. In addition, under setting [2], the IC50 is 2300 nM.
In the same order, the values of `CC(C)CNP(=O)(OCc1ccc([N+](=O)[O-])c(Oc2ccc(-c3ccc(F)cc3)c(F)c2)c1)OCC1OC(C2N=CC(N)=NC2=O)C(F)(F)C1O` (stereo not drawn) [Compound H7] are 61.3, 26.8 nM and 1640 nM.
`NC1=NC(=O)C(C2OC(COP(=O)(NCc3ccccc3)OCc3ccc([N+](=O)[O-])c(Oc4ccc(-c5ccc(F)cc5)c(F)c4)c3)C(O)C2(F)F)N=C1` (stereo not drawn) [Compound H8]: the “specific activation ratio” value is on record as 44.8. Under setting [1], the IC50 amounted to 67.5 nM. The IC50 under setting [2] was 3020 nM.
On to `NC1=NC(=O)C(C2OC(COP(=O)(NCc3ccccc3)OCc3ccc([N+](=O)[O-])c(Oc4ccc(C(F)(F)F)cc4)c3)C(O)C2(F)F)N=C1` (stereo not drawn) [Compound H9], for which the “specific activation ratio” value is 23.2. Moreover, the IC50 under setting [1] turned out to be 78.2 nM. Further, the IC50 under setting [2] came out at 1810 nM.
Taken in the same sequence, the figures for `CC(C)CNP(=O)(OCc1ccc([N+](=O)[O-])c(Oc2ccc(C(F)(F)F)cc2)c1)OCC1OC(C2N=CC(N)=NC2=O)C(F)(F)C1O` (stereo not drawn) [Compound H10] were 27.7, 105 nM and 2900 nM.
